# Literature values as cited in patent publication US20050009776A1, “Method of treating atrial fibrillation or atrial flutter” (Aderis Pharmaceuticals, Inc., priority 2003, published 2005).
# Conditions: cited from earlier work
structure (smiles),measurement,value
Nc1ncnc2c1ncn2[C@@H]1O[C@H](CO)[C@@H](O)[C@H]1O [adenosine],half-life,10 s
